Test results published in patent publication US11987588B2, “Modulators of the beta-3 adrenergic receptor useful for the treatment or prevention of heart failure and disorders related thereto” (Arena Pharmaceuticals, Inc., priority 2017, dated 2024).

Target: Beta-3 Adrenergic Receptor (Homo sapiens (Human), UniProt P13945)
Test: Homogeneous Time-Resolved Fluorescence (HTRF) cAMP antagonist assay, IC50 determination
Assay type: cell-based
Settings: CHO-K1 cells stably expressing recombinant receptor, isoproterenol at EC90
Protocol: HTRF cAMP assays were performed according to manufacturer's instructions (Cisbio, cAMP Dynamic 2 Assay Kit; #62AM4PEJ). CHO-K1 cells stably expressing recombinant receptor were harvested and suspended in warm PBS to make a 300,000 cells/mL stock. This cell suspension was dispensed into 384 well assay plates (PerkinElmer ProxiPlate #6008280) at 5 μL per well (1500 cells/well) along with a cAMP standard curve.
Compounds were dissolved and serially diluted (5-fold) in DMSO to generate a 10-point dose response stock. The stock was then diluted 100-fold in assay buffer (PBS containing 1 mM IBMX) before a volume of 2.5 μL was added to the cells (the final, top concentration of compound in the dose-response is typically 10 or 100 μM). After a brief incubation, 2.5 μL of isoproterenol stock, prepared at a concentration 4 times its EC90 at the receptor of interest, was added to the wells. The EC90 for isoproterenol, a beta-adrenergic agonist, was determined in separate experiments using standard methods to measure agonist potencies.
Following a 1-hour incubation at room temperature, 5 μL of cAMP-D2 Reagent diluted in Lysis Buffer was added to each well followed by 5 μL of Cryptate Reagent. Plates were further incubated at room temperature for 1 hour prior to reading. Time resolved fluorescence measurements were collected on a suitable, HTRF-capable plate reader.
Counts from the plate reader were fit to the cAMP standard curve on the assay plate in order to determine cAMP concentrations in each well, and these values were used to construct dose-response curves to obtain IC50 values.

Beta-3 Adrenergic Receptor, sequence (P13945 whole entry, species assumed): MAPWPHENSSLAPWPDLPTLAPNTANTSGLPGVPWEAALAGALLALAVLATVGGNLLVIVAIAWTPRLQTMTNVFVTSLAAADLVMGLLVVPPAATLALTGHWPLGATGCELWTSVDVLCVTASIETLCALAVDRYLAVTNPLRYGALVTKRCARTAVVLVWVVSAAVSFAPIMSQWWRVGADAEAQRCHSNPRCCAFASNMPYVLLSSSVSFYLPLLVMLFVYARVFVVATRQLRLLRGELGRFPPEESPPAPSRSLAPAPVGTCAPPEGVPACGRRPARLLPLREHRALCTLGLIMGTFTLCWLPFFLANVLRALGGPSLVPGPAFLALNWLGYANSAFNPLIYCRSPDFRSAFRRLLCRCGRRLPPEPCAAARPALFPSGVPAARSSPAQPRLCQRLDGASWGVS

IC50	SMILES
0.472 µM	CN1CCOc2ncc(S(=O)(=O)N3CCC4(CC3)C[C@@H](NC[C@H](O)COc3cccc(S(=O)(=O)NC5CCCC5O)c3)CO4)cc21 (stereo in doubt) [Compound 437, 3-((S)-2-hydroxy-3-((R)-8-(1-methyl-2,3-dihydro-1H-pyrido[2,3-b][1,4]oxazin-7-ylsulfonyl)-1-oxa-8-azaspiro[4.5]decan-3-ylamino)propoxy)-N-((1R,2S)-2-hydroxycyclopentyl)benzenesulfonamide]
0.0054 µM	CNS(=O)(=O)c1cccc(OC[C@@H](O)CNC2COC3(CCN(S(=O)(=O)c4ccc5ccccc5c4)CC3)C2)c1 (stereo partly drawn) [Compound 1, 3-((2S)-2-hydroxy-3-(8-(naphthalen-2-ylsulfonyl)-1-oxa-8-azaspiro[4.5]decan-3-ylamino)propoxy)-N-methylbenzenesulfonamide]
0.0211 µM	CCCNS(=O)(=O)c1cccc(OC[C@@H](O)CNC2COC3(CCN(S(=O)(=O)c4ccc5ccccc5c4)CC3)C2)c1 (stereo partly drawn) [Compound 2, 3-((2S)-2-hydroxy-3-(8-(naphthalen-2-ylsulfonyl)-1-oxa-8-azaspiro[4.5]decan-3-ylamino)propoxy)-N-propylbenzenesulfonamide]
0.133 µM	CCCCCNS(=O)(=O)c1cccc(OC[C@@H](O)CNC2COC3(CCN(S(=O)(=O)c4ccc5ccccc5c4)CC3)C2)c1 (stereo partly drawn) [Compound 3, 3-((2S)-2-hydroxy-3-(8-(naphthalen-2-ylsulfonyl)-1-oxa-8-azaspiro[4.5]decan-3-ylamino)propoxy)-N-pentylbenzenesulfonamide]
0.0112 µM	CN(C)S(=O)(=O)c1cccc(OC[C@@H](O)CNC2COC3(CCN(S(=O)(=O)c4ccc5ccccc5c4)CC3)C2)c1 (stereo partly drawn) [Compound 4, 3-((2S)-2-hydroxy-3-(8-(naphthalen-2-ylsulfonyl)-1-oxa-8-azaspiro[4.5]decan-3-ylamino)propoxy)-N,N-dimethylbenzenesulfonamide]
0.22 µM	O=S(=O)(NCC(F)(F)F)c1cccc(OC[C@@H](O)CNC2COC3(CCN(S(=O)(=O)c4ccc5ccccc5c4)CC3)C2)c1 (stereo partly drawn) [Compound 5, 3-((2S)-2-hydroxy-3-(8-(naphthalen-2-ylsulfonyl)-1-oxa-8-azaspiro[4.5]decan-3-ylamino)propoxy)-N-(2,2,2-trifluoroethyl)benzenesulfonamide]
0.0243 µM	CC(C)NS(=O)(=O)c1cccc(OC[C@@H](O)CNC2COC3(CCN(S(=O)(=O)c4ccc5ccccc5c4)CC3)C2)c1 (stereo partly drawn) [Compound 6, 3-((2S)-2-hydroxy-3-(8-(naphthalen-2-ylsulfonyl)-1-oxa-8-azaspiro[4.5]decan-3-ylamino)propoxy)-N-isopropylbenzenesulfonamide]
0.285 µM	CCN(C(C)C)S(=O)(=O)c1cccc(OC[C@@H](O)CNC2COC3(CCN(S(=O)(=O)c4ccc5ccccc5c4)CC3)C2)c1 (stereo partly drawn) [Compound 7, N-ethyl-3-((2S)-2-hydroxy-3-(8-(naphthalen-2-ylsulfonyl)-1-oxa-8-azaspiro[4.5]decan-3-ylamino)propoxy)-N-isopropylbenzenesulfonamide]
0.0387 µM	O=S(=O)(NCC1CC1)c1cccc(OC[C@@H](O)CNC2COC3(CCN(S(=O)(=O)c4ccc5ccccc5c4)CC3)C2)c1 (stereo partly drawn) [Compound 8, N-(cyclopropylmethyl)-3-((2S)-2-hydroxy-3-(8-(naphthalen-2-ylsulfonyl)-1-oxa-8-azaspiro[4.5]decan-3-ylamino)propoxy)benzenesulfonamide]
0.107 µM	O=S(=O)(NCC(F)F)c1cccc(OC[C@@H](O)CNC2COC3(CCN(S(=O)(=O)c4ccc5ccccc5c4)CC3)C2)c1 (stereo partly drawn) [Compound 9, N-(2,2-difluoroethyl)-3-((2S)-2-hydroxy-3-(8-(naphthalen-2-ylsulfonyl)-1-oxa-8-azaspiro[4.5]decan-3-ylamino)propoxy)benzenesulfonamide]
0.0492 µM	CCC(C)NS(=O)(=O)c1cccc(OC[C@@H](O)CNC2COC3(CCN(S(=O)(=O)c4ccc5ccccc5c4)CC3)C2)c1 (stereo partly drawn) [Compound 10, N-sec-butyl-3-((2S)-2-hydroxy-3-(8-(naphthalen-2-ylsulfonyl)-1-oxa-8-azaspiro[4.5]decan-3-ylamino)propoxy)benzenesulfonamide]
0.0151 µM	CONS(=O)(=O)c1cccc(OC[C@@H](O)CNC2COC3(CCN(S(=O)(=O)c4ccc5ccccc5c4)CC3)C2)c1 (stereo partly drawn) [Compound 11, 3-((2S)-2-hydroxy-3-(8-(naphthalen-2-ylsulfonyl)-1-oxa-8-azaspiro[4.5]decan-3-ylamino)propoxy)-N-methoxybenzenesulfonamide]
0.0317 µM	O=S(=O)(NCCO)c1cccc(OC[C@@H](O)CNC2COC3(CCN(S(=O)(=O)c4ccc5ccccc5c4)CC3)C2)c1 (stereo partly drawn) [Compound 12, 3-((2S)-2-hydroxy-3-(8-(naphthalen-2-ylsulfonyl)-1-oxa-8-azaspiro[4.5]decan-3-ylamino)propoxy)-N-(2-hydroxyethyl)benzenesulfonamide]
0.0287 µM	COCCNS(=O)(=O)c1cccc(OC[C@@H](O)CNC2COC3(CCN(S(=O)(=O)c4ccc5ccccc5c4)CC3)C2)c1 (stereo partly drawn) [Compound 13, 3-((2S)-2-hydroxy-3-(8-(naphthalen-2-ylsulfonyl)-1-oxa-8-azaspiro[4.5]decan-3-ylamino)propoxy)-N-(2-methoxyethyl)benzenesulfonamide]
0.0301 µM	CNS(=O)(=O)c1cccc(OC[C@@H](O)CNC2COC3(CCN(S(=O)(=O)c4ccccc4)CC3)C2)c1 (stereo partly drawn) [Compound 14, 3-((2S)-2-hydroxy-3-(8-(phenylsulfonyl)-1-oxa-8-azaspiro[4.5]decan-3-ylamino)propoxy)-N-methylbenzenesulfonamide]
0.0124 µM	CNS(=O)(=O)c1cccc(OC[C@@H](O)CNC2COC3(CCN(S(=O)(=O)c4cccc(Cl)c4)CC3)C2)c1 (stereo partly drawn) [Compound 15, 3-((2S)-3-(8-(3-chlorophenylsulfonyl)-1-oxa-8-azaspiro[4.5]decan-3-ylamino)-2-hydroxypropoxy)-N-methylbenzenesulfonamide]
0.00747 µM	CNS(=O)(=O)c1cccc(OC[C@@H](O)CNC2COC3(CCN(S(=O)(=O)c4ccc5c(c4)CCCC5)CC3)C2)c1 (stereo partly drawn) [Compound 16, 3-((2S)-2-hydroxy-3-(8-(5,6,7,8-tetrahydronaphthalen-2-ylsulfonyl)-1-oxa-8-azaspiro[4.5]decan-3-ylamino)propoxy)-N-methylbenzenesulfonamide]
0.0153 µM	CNS(=O)(=O)c1cccc(OC[C@@H](O)CNC2COC3(CCN(S(=O)(=O)c4ccc(Cl)cc4)CC3)C2)c1 (stereo partly drawn) [Compound 17, 3-((2S)-3-(8-(4-chlorophenylsulfonyl)-1-oxa-8-azaspiro[4.5]decan-3-ylamino)-2-hydroxypropoxy)-N-methylbenzenesulfonamide]
0.0208 µM	CNS(=O)(=O)c1cccc(OC[C@@H](O)CNC2COC3(CCN(S(=O)(=O)c4ccc(OC)cc4)CC3)C2)c1 (stereo partly drawn) [Compound 18, 3-((2S)-2-hydroxy-3-(8-(4-methoxyphenylsulfonyl)-1-oxa-8-azaspiro[4.5]decan-3-ylamino)propoxy)-N-methylbenzenesulfonamide]
0.01 µM	CNS(=O)(=O)c1cccc(OC[C@@H](O)CNC2COC3(CCN(S(=O)(=O)c4ccc(C)c(C)c4)CC3)C2)c1 (stereo partly drawn) [Compound 19, 3-((2S)-3-(8-(3,4-dimethylphenylsulfonyl)-1-oxa-8-azaspiro[4.5]decan-3-ylamino)-2-hydroxypropoxy)-N-methylbenzenesulfonamide]
0.0132 µM	CNS(=O)(=O)c1cccc(OC[C@@H](O)CNC2COC3(CCN(S(=O)(=O)c4cccc(Br)c4)CC3)C2)c1 (stereo partly drawn) [Compound 20, 3-((2S)-3-(8-(3-bromophenylsulfonyl)-1-oxa-8-azaspiro[4.5]decan-3-ylamino)-2-hydroxypropoxy)-N-methylbenzenesulfonamide]
0.0134 µM	CNS(=O)(=O)c1cccc(OC[C@@H](O)CNC2COC3(CCN(S(=O)(=O)c4cccc(C)c4)CC3)C2)c1 (stereo partly drawn) [Compound 21, 3-((2S)-2-hydroxy-3-(8-(m-tolylsulfonyl)-1-oxa-8-azaspiro[4.5]decan-3-ylamino)propoxy)-N-methylbenzenesulfonamide]
0.015 µM	CCC(C)c1ccc(S(=O)(=O)N2CCC3(CC2)CC(NC[C@H](O)COc2cccc(S(=O)(=O)NC)c2)CO3)cc1 (stereo partly drawn) [Compound 22, 3-((2S)-3-(8-(4-sec-butylphenylsulfonyl)-1-oxa-8-azaspiro[4.5]decan-3-ylamino)-2-hydroxypropoxy)-N-methylbenzenesulfonamide]
0.0138 µM	CNS(=O)(=O)c1cccc(OC[C@@H](O)CNC2COC3(CCN(S(=O)(=O)c4cc(C)cc(C)c4)CC3)C2)c1 (stereo partly drawn) [Compound 23, 3-((2S)-3-(8-(3,5-dimethylphenylsulfonyl)-1-oxa-8-azaspiro[4.5]decan-3-ylamino)-2-hydroxypropoxy)-N-methylbenzenesulfonamide]
0.106 µM	CNS(=O)(=O)c1cccc(OC[C@@H](O)CNC2COC3(CCN(S(=O)(=O)c4ccc(C(=O)N(C)C)cc4)CC3)C2)c1 (stereo partly drawn) [Compound 24, 4-(3-((S)-2-hydroxy-3-(3-(N-methylsulfamoyl)phenoxy)propylamino)-1-oxa-8-azaspiro[4.5]decan-8-ylsulfonyl)-N,N-dimethylbenzamide]
